# How the values were obtained:
# [1] = test system: APP/PS1 mice hippocampus (Schaffer collateral-CA1); assay: fEPSP slope and LTP in hippocampus of Alzheimer's animal model; assay type: in vivo; details: 15 months old
# Procedure: For intravenous injection, the tail vein injection method was used. […] In the drug injection test, the compound was administered once a day for about 11 to 13 days. 5 mice were used for the compound administration group and the control group, respectively.
# For TC or hippocampus slice preparation. 9 to 10 weeks-old male C57BL/6J mice were anesthetized with isoflurane. Then, the brain was rapidly cooled via transcardial perfusion with ice-cold sucrose-artificial cerebrospinal fluid (aCSF). The brain was removed and placed in ice-cold sucrose aCSF. Paracoronal slices were prepared at an angle of 50° relative to the midline on a ramp at an angle of 10°. […]
# Field recordings were made with a concentric bipolar electrode positioned in the stratum radiatum of the CA1 region using an extracellular glass pipette (3.5 MΩ) filled with aCSF. […] In all fEPSP experiments, the test stimulation were measured prior to the beginning of all the experiments (30 μA) and a test-pulse stimulation strength that evokes 50% of the maximum fEPSP was used. Baseline synaptic responses was recorded for 30 minutes, and then long-term potentiation (LTP) was induced by high-frequency stimulation (HFS; 100 Hz, 4 trains, 1 s duration, 20 s inter-train interval). […]
# Excitatory postsynaptic potential (EPSP) was recorded by the whole-cell patch clamp method using a patch clamp amplifier (molecular devices, USA). […]
# [2] = test system: BDNF and GluN2B expression in 293T cells; assay: RT-PCR of BDNF and GluN2B mRNA in 293T cells; assay type: cell-based, human; details: 6 hours after treating 293T cells, vs untreated group
# Procedure: RT-PCR was used to measure the amount of BDNF and GluN2B in response to compounds of the present disclosure. 293T cells were dissociated using 0.05% Trypsin-EDTA solution and seeded in 24 well or 6 well dishes for RNA work. After incubation at 37° C. in a humidified atmosphere with 5% CO2 for 24 hours, the culture medium was replaced by a medium containing a series of concentrations of tested compounds diluted with the DMEM without FBS. Time course experiments were performed. The same volume of DMSO was used for negative control.
# RNA was isolated from the cells after the compound treatment. After removing growth media, 0.3 to 0.4 mL of TRIzol™ per 1×10^5 to 10^7 cells were added directly to the culture dish to lyse the cells. […] RNA concentration was determined with the Thermo Scientific™ ρDrop™ plate. RNA quality was determined by measuring A230/260 and A260/280 ratio. […]
# The PCR product was analyzed by agarose gel electrophoresis. […]
# The BnH12 series drug according to the present disclosure was synthesized as a compound targeting HDAC4, which inhibits the expression of BDNF. […] In addition, it is known that the increase in the expression of BDNF increases the expression of GluN2B, and the mRNA level of GluN2B was also measured together with BDNF to measure the efficacy of BnH12001 in degrading HDAC4.
# SH-SY5Y cells = assay: Cytotoxicity test (CCK-8 cell viability) in SH-SY5Y cells; assay type: cell-based, human; details: 0, 0.1, 1, 10, 100 μM
# Procedure: Human undifferentiated neuroblastoma cell line SH-SY5Y and human embryonic kidney cell line (HEK)-293T were purchased from Korean Cell Line Bank (Korea) and Takara (Japan), respectively. Cells were grown in HyClone Minimal Essential Medium (MEM) and Dulbecco's Modified Eagle Medium (DMEM), respectively, supplemented with 10% (v/v) fetal bovine serum (FBS), penicillin (100 U/mL), and streptomycin ([…]). Cells were maintained in a humidified atmosphere of 95% air and 5% CO2 at 37° C. Cells were passaged 10 times at maximum. Cells were dissociated using 0.05% trypsin-EDTA solution and the cells were seeded in new culture dishes for maintenance.
# To examine the cytotoxicity of compounds described herein in human cell lines, SH-SY5Y and 293T cells were used. […] Finally, 10 μL of CCK-8 reagent (Dojindo Laboratories, Rockville, MD) was added to each well, and after incubation at 37° C. for 3 minutes, the OD at 450 nm was measured using a multifunction microplate reader (Tecan Infinite M200 Pro). These measurements were compared to that of a control and expressed as a percentage of the control to calculate cell viability. The IC50 value was calculated using SPSS software. To do this, the absorbance of the blank wells with only growth medium is subtracted from the values or the wells with cells. […]
# HDAC5 = HDAC5 (Homo sapiens, UniProt Q9UQL6); assay: HDAC catalytic activity, fluorogenic substrate; assay type: biochemical; details: 10-dose, 3-fold serial dilution starting at 100 μM, duplicates
# Procedure: The compound (racemate) was resuspended in 100 mM DMSO and tested in a 10-dose IC50 with 3-fold serial dilution starting at 100 μM against HDACs 1-9, and 11. As reference compounds, Trichostatin A (TSA) and TMP269 were tested in a 10-dose IC50 with 3-fold serial dilution starting at 10 μM or 1 μM.
# 10 μM Fluorogenic peptide from p53 residues 379-382 (RHKK(Ac)AMC) was used for the substrate for HDAC 1, 2, 3, and 6, 50 μM Fluorogenic HDAC Class2a Substrate (Trifluoroacetyl Lysine) was used for the substrate for HDAC 4, 5, 7, 9, and 11, 100 μM Fluorogenic peptide from p53 residues 379-382 (RHK(Ac)K(Ac)AMC) was used for the substrate for HDAC8.
# IC50 values were calculated using the GraphPad Prism 4 program based on a sigmoidal dose-response equation and the blank (DMSO) value concentration was entered as 1.00E-12 M for curve fitting.
# Sequence of HDAC5 (Q9UQL6 whole entry, species assumed): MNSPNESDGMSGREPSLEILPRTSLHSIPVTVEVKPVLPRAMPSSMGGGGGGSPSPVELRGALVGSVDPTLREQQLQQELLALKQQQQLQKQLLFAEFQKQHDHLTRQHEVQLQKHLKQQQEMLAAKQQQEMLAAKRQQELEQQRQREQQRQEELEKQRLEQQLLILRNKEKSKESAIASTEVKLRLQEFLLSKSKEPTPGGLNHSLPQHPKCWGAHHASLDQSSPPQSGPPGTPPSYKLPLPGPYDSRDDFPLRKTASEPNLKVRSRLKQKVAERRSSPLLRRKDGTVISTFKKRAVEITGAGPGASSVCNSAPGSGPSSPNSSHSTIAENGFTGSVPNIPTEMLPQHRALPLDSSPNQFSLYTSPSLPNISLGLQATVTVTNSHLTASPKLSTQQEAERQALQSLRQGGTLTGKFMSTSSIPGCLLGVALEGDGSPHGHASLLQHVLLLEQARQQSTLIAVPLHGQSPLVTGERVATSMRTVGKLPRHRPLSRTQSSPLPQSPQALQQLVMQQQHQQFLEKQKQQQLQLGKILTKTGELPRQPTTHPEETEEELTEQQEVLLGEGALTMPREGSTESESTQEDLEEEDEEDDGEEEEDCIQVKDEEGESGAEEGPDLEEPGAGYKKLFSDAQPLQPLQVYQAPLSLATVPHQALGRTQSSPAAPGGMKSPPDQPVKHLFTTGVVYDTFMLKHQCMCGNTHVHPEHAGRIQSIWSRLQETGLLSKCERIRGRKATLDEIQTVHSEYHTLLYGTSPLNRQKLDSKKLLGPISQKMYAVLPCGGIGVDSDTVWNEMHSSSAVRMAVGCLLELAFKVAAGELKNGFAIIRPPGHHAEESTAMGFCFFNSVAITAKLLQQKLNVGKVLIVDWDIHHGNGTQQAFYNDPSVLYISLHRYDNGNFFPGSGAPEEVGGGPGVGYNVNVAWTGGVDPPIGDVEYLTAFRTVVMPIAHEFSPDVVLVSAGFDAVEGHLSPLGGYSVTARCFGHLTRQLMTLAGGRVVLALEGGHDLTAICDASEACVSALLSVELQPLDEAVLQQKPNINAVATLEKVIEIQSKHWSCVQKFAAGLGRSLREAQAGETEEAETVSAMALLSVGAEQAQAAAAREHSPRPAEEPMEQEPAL
Compound,Slope of fEPSP in CA1 region of Schaffer collateral circuit (synaptic efficacy) [1],Synaptic long-term potentiation (LTP) of the excitatory SC pathway [1],BDNF mRNA level [2],GluN2B mRNA level [2],Change in cell viability (SH-SY5Y cells),Inhibitory effect on HDAC5 catalytic activity (HDAC5)
"C[C@@H]1CC[C@H](C(=O)O)CN1C(=O)Cc1ccc(F)cc1Cl [BnH12001 enantiomer (3S,6R, 98%<), (3S,6R)-1-(2-(2-chloro-4-fluorophenyl)acetyl)-6-methylpiperidine-3-carboxylic acid]",increased synaptic efficacy,significantly increased,–,–,–,–
"CC1CCC(C(=O)O)CN1C(=O)Cc1ccc(F)cc1Cl (racemic) [BnH12001, 1-(2-(2-chloro-4-fluorophenyl)acetyl)-6-methylpiperidine-3-carboxylic acid]",–,–,significantly increased,significantly increased,no significant change in cell viability,did not show any inhibitory effect
